Consider 87 compounds from ChEMBL document CHEMBL1157539, “Thousands of chemical starting points for antimalarial lead identification” (Nature, 2010).

The test system of this assay is Plasmodium falciparum. Put plainly: GSK_TCMDC: Inhibition of Plasmodium falciparum 3D7 in whole erythrocytes, using parasite LDH activity as an index of growth. Type of assay: functional, organism-based.

SMILES strings stand for the structures.

Take `c1cc2[nH]c(CCCCc3nc4cc(C5=N[C@H]6CCCC[C@H]6N5)ccc4[nH]3)nc2cc1C1=N[C@H]2CCCC[C@H]2N1`: the XC50 (Plasmodium falciparum, 3D7) turned out to be 415 nM.
The same measure, in the same setting: in the case of `CC(CNc1nc(NCC(c2ccccc2)c2ccccc2)c2nc[nH]c2n1)c1ccccc1` (stereo not drawn) it was 948 nM; in that of `CCOc1ccccc1CNc1nccc(NCc2ccc(Cl)cc2Cl)n1`, 1100 nM.
`O=C(c1ccc(F)c2ccccc12)N1CCc2cc3nccc(N4CCN5CCC[C@H]5C4)c3cc21`: under “Plasmodium falciparum, 3D7”, the XC50 worked out at 1000 nM.
The compound `CCC(ON1C(N)=NC(N)=NC1(C)C)c1ccccc1` (stereo not drawn) yielded an XC50 (Plasmodium falciparum, 3D7) of 33.5 nM.
Under “Plasmodium falciparum, 3D7”, `O=C(NC1c2ccccc2Oc2ccccc21)c1ccccc1O` yielded an XC50 of 844 nM.
Compound `CN1CCCC(OC(=O)c2ccccc2)C1` (stereo not drawn) yielded an XC50 (Plasmodium falciparum, 3D7) of 756 nM.
The compound `COc1ccc(CCn2c(=N)c(C(=O)NCc3ccc(C)cc3)cc3c(=O)n4ccccc4nc32)cc1` yielded an XC50 (Plasmodium falciparum, 3D7) of 1130 nM.
The same measure, in the same setting: in the case of `Cc1cc(-c2ccc(CNC3Cc4ccccc4C3)cc2)ccc1S(=O)(=O)NCCN1CCCC1` it was 704 nM; in that of `O=C(NCCSCc1c(F)cccc1Cl)c1cnc2c(c1)nc(-c1c[nH]c(-c3ccccc3)n1)n2CCc1c[nH]cn1`, 807 nM.
For the compound `COc1cc(C2=NN(S(=O)(=O)c3c(C)cc(C)cc3C)CCCC2)ccc1Cl`, the XC50 (Plasmodium falciparum, 3D7) stood at 775 nM.
Same read-out and setting: as for `CCc1c(CCNCCCCCNCCc2ccc(OC)c(OC)c2CC)ccc(OC)c1OC`, the figure is 1110 nM; as for `CCn1c(-c2nonc2N)nc2c(-c3cccc(NC(=O)Nc4ccc(C#N)cc4)c3)ncc(OCCCN)c21`, 1510 nM.
Still for that read-out and setting: as for `COc1cc(F)c2ncc(Cl)c(CCN3CCC(NCc4ccc5c(c4)NC(=O)CO5)CC3)c2c1`, the figure is 227 nM; as for `NS(=O)(=O)c1cccc(N/C=C2\C(=O)Nc3ccc(S(=O)(=O)Cc4c(Cl)cccc4Cl)cc32)c1`, 720 nM; as for `COc1cccc(NC(=O)Nc2c(-c3cccc(C(F)(F)F)c3)c(C(F)(F)F)nn2C)c1`, 911 nM.
The same measure, in the same setting: in the case of `Nc1cc(/C=C/c2ccc([N+](=O)[O-])o2)nc2ccccc12` it was 367 nM; in that of `CCN(CC)/C(=N/C(=N)Nc1ccc(Cl)cc1)NCCCCCCCCN/C(=N\C(=N)Nc1ccc(Cl)cc1)N(CC)CC`, 403 nM; in that of `CCCCCCCc1c(C)nc2cc(OC)ccc2c1O`, 62.8 nM.
With `Cc1ccccc1C1CCN(c2ncc(C(=O)Nc3ccccc3)cc2Cl)CC1`, the XC50 (Plasmodium falciparum, 3D7) stood at 1010 nM.
Same read-out and setting: in the case of `CC(C)C[C@H](NC(=O)c1ccc(F)cc1)C(=O)N[C@H](/C=N/NC(=O)c1ccccc1)CCc1ccccc1` it was 812 nM; in that of `CCN(CCCN1CCCCC1)c1cc(C)nc(Nc2ccc(C)cc2C)n1`, 351 nM; in that of `CC(C)N1CCN(C(=O)c2ccc(CNCCCN3CCN(c4cccc(Cl)c4Cl)CC3)s2)CC1`, 716 nM.
The same measure, in the same setting: as for `COc1ccc(CNCc2ccc(F)cc2)cc1-c1cccc(S(=O)(=O)NCCN2CCCC2)c1`, the figure is 805 nM; as for `Cc1cc(N)cc2nc(-c3ccc(N)cc3)[nH]c12`, 892 nM.
In turn, `CCC(CCON1C(N)=NC(N)=NC1(C)C)c1ccc(Cl)cc1` (stereo not drawn) yielded an XC50 (Plasmodium falciparum, 3D7) of 3.2 nM.
The compound `Cn1cncc1CCN(Cc1ccc(-c2ccc(C(F)(F)F)cc2)cc1)C(=O)Cn1c(CCc2cccc(F)c2F)cc(=O)c2cccnc21` had an XC50 (Plasmodium falciparum, 3D7) of 853 nM.
Consider `Cc1ccc(O)cc1C[C@@H]1C(=O)CC[C@@]2(C)[C@H]1CC[C@]2(C)O`, for which the XC50 (Plasmodium falciparum, 3D7) is 957 nM.
On the same count and under the same terms, as for `CO/C(=C\C=C\c1cc2cc(Cl)c(Cl)cc2[nH]1)C(=O)NCCCN1CCN(c2cccc(CCCO)c2)CC1`, the figure is 1030 nM.
The same measure, in the same setting: in the case of `NCCC(=O)Nc1ccc(-c2cnc3[nH]cc(-c4ccc(C(=O)O)cc4)c3c2)cn1` it was 842 nM; in that of `NC(=O)c1ccccc1Nc1nc(Nc2cccc(N3CCN(CCO)CC3)c2)ncc1Cl`, 39.6 nM.
With `O=C(Nc1ccc(Cl)cc1)Nc1cccc(-c2cccc(-c3nc4cc(C(F)(F)F)ccc4[nH]3)c2)c1`, where the note is “Plasmodium falciparum, 3D7”, the XC50 came out at 227 nM.
For the setting “Plasmodium falciparum, 3D7”, `CC(=O)Nc1nc(C)c(-c2csc(Nc3ccc(Cl)cc3)n2)s1` showed an XC50 of 258 nM.
Take `COCC(=O)N(Cc1ccccc1-c1ccc(CNCCc2ccccc2)cc1)C1CCN(Cc2ccccc2)CC1`: the XC50 (Plasmodium falciparum, 3D7) came to 895 nM.
As to `CC(C)Nc1ccc(Nc2ccnc3cc4ccccc4cc23)cc1`, for the setting “Plasmodium falciparum, 3D7”, the XC50 turned out to be 142 nM.
Where the note is “Plasmodium falciparum, 3D7”, `COc1ccc2nccc(N/N=C/c3cccc([N+](=O)[O-])c3)c2c1` returned an XC50 of 398 nM.
Same read-out and setting: as for `CC(C)CCN1CCC(Oc2ccc(NC(=O)c3ccc(F)cc3)cc2Cl)CC1`, the figure is 725 nM.
Under “Plasmodium falciparum, 3D7”, `O=C(NOCc1ccccc1)c1cc(Cl)ccc1O` came in with an XC50 of 1100 nM.
For the compound `Cc1cccc2nc(-c3cccc(-c4cccc(CNCc5ccccc5)c4)c3)[nH]c12`, where the note is “Plasmodium falciparum, 3D7”, the XC50 came to 393 nM.
The same measure, in the same setting: in the case of `CN(C)c1ccc(-c2nnc(Sc3ccc(C#N)c([N+](=O)[O-])c3)n2Cc2ccco2)cc1` it was 854 nM.
The same measure, in the same setting: in the case of `Nc1c(Cl)cc(C(O)CNCCCCCOCCc2ccccc2)cc1C(F)(F)F` (stereo not drawn) it was 978 nM; in that of `COc1ccc(NC(C)C(=O)Nc2ccc(Br)cc2)cc1S(=O)(=O)N1CCCCC1` (stereo not drawn), 221 nM.
`CC(C)[C@H](NCC(=O)c1ccccc1)C(=O)O` returned an XC50 (Plasmodium falciparum, 3D7) of 783 nM.
Compound `CN1CCN(CCc2ccc(N/C=C3\C(=O)Nc4ccc5ncccc5c43)cc2)CC1` yielded an XC50 (Plasmodium falciparum, 3D7) of 325 nM.
Still for that read-out and setting: as for `CN1CCN(CCCN(Cc2cccc(-c3cccc(CNCCc4ccccc4)c3)c2)C(=O)Nc2ccccc2)CC1`, the figure is 579 nM; as for `CN(C(=O)/C=C/c1cc(C(F)(F)F)ccc1F)C1CCN(CCCCCNC(=O)/C=C/c2ccc(Cl)c(Cl)c2)CC1`, 287 nM.
On the same count and under the same terms, as for `Cc1ccc(CC(C)NCC(O)c2cccc(Br)c2)cc1` (stereo not drawn), the figure is 802 nM; as for `CCCC(C)NC(=O)[C@H]1CNCCN1C(=O)CCCc1ccccc1` (stereo partly drawn), 186 nM; as for `CN(C)CCCSc1ccccc1NC(=O)C=Cc1ccccc1`, 964 nM.
Compound `COc1ccc(OCCON)cc1` showed an XC50 (Plasmodium falciparum, 3D7) of 201 nM.
For the compound `CN(C)CCCc1cc(NC(=O)Nc2cccc(Cl)c2Cl)ccc1I`, under “Plasmodium falciparum, 3D7”, the XC50 is 539 nM.
In the case of `CC(C)C[C@@H](/C=N/N1CCOC1=O)NC(=O)[C@H](CC(C)C)NC(=O)c1ccc(OCCN2CCOCC2)cc1`, the XC50 (Plasmodium falciparum, 3D7) came to 215 nM.
The same measure, in the same setting: as for `O=C(Nc1cccc(-c2nn3ccccc3c2-c2ccnc(Nc3ccc(-c4cc[nH]n4)cc3)n2)c1)c1c(F)cccc1F`, the figure is 189 nM; as for `CC(C)CNCc1ccc(-c2cccc(CN(C(=O)NC3CCCCC3)C3CCN(Cc4ccccc4)CC3)c2)cc1`, 805 nM.
On to `Cc1cccc(NC(=O)c2ccc(C(=O)NC3CCN(CC4CCCCC4)C3)cc2)c1` (stereo not drawn), for which the XC50 (Plasmodium falciparum, 3D7) came out at 923 nM.
Same read-out and setting: as for `O=C(NCCCCCN1CCCN(C(=O)Nc2ccc(Cl)c(C(F)(F)F)c2)CC1)C1CC1c1ccc(Cl)c(Cl)c1` (stereo not drawn), the figure is 852 nM.
Same read-out and setting: as for `O=C(/C=C/c1ccc(Cl)c(Cl)c1)NCCCCCN1CCN(C(=O)Nc2ccc(OC(F)F)cc2)CC1`, the figure is 945 nM.
On the same count and under the same terms, as for `COc1cc(OC)cc(C(=O)Nc2nc(-c3ccccn3)cs2)c1`, the figure is 561 nM; as for `COc1ccc(CNCc2ccc(-c3cccc(-c4nc5cc(F)ccc5[nH]4)c3)cc2)cc1`, 202 nM; as for `CN(C)c1nc(NCc2ccccc2)nc(N/N=C/c2cc([N+](=O)[O-])ccc2O)n1`, 685 nM.
Where the note is “Plasmodium falciparum, 3D7”, `CCN(CC)CCN(Cc1ccc(-c2ccc(Cl)cc2)cc1)C(=O)Cn1cc(CN(C)C)c(=O)nc1SCc1ccc(F)cc1` returned an XC50 of 748 nM.
Same read-out and setting: as for `COc1cccc2c(NN=Cc3ccccc3F)ccnc12`, the figure is 941 nM; as for `Cc1cccc2nc(-c3ccc(-c4ccc(CNCC5CCCO5)cc4)cc3)[nH]c12` (stereo not drawn), 678 nM; as for `COc1cc(Cc2cnc(N)nc2N)cc(OCCCCCC(=O)O)c1OC`, 231 nM.
As to `Cc1cc(-c2ccc3c(c2)CCN(CCC2CCC(NC(=O)/C=C/c4ccccc4F)CC2)CC3)on1` (stereo not drawn), the XC50 (Plasmodium falciparum, 3D7) is 811 nM.
On the same count and under the same terms, as for `O=S(=O)(NC1CCN(c2ccnc3cc(Cl)ccc23)C1)c1cccs1` (stereo not drawn), the figure is 697 nM.
`CCC(CC(NCCCCNC(=O)c1ccc(NC(=O)c2ccc(Cl)cc2)cc1)c1ccccc1)c1ccccc1OC` (stereo not drawn): the XC50 was determined as 666 nM. In addition, the XC50 (Plasmodium falciparum, 3D7) came out at 792 nM.
Under “Plasmodium falciparum, 3D7”, `N#Cc1ccc(NC2(C(=O)N3CCN(c4cccc(Cl)c4)CC3)CC2)c2ccccc12` had an XC50 of 1150 nM.
In turn, `CCCN(CCC)CCCN(CCCN(CCC)CCC)c1cc(C)nc(Nc2ccc3cc(Br)ccc3c2)n1` yielded an XC50 (Plasmodium falciparum, 3D7) of 210 nM.
Compound `CC1(CCCCN2CC=C(c3c[nH]c4ccccc34)CC2)C(=O)Nc2ccccc21` (stereo not drawn) yielded an XC50 (Plasmodium falciparum, 3D7) of 138 nM.
On the same count and under the same terms, as for `Cc1nc(-c2cccc(Nc3ccnc4cc(-c5nccs5)ccc34)c2)no1`, the figure is 322 nM; as for `O=c1cc(NCCCNCc2[nH]c3cc(Cl)ccc3c2Cl)[nH]c2ccccc12`, 910 nM; as for `COc1ccc2nc(C)cc(NC3Cc4ccccc4C3)c2c1`, 839 nM.
The same measure, in the same setting: in the case of `NC1(C(=O)O)Cc2ccc(Cl)cc2C1` (stereo not drawn) it was 734 nM; in that of `Cc1cccc(C(=O)NC(NC(=S)Nc2ccc([N+](=O)[O-])cc2)C(Cl)(Cl)Cl)c1` (stereo not drawn), 744 nM; in that of `O=C(Nc1ccc(Cl)c(Cl)c1)Nc1ccc2nccc(N3CCN(Cc4ccccc4)CC3)c2c1`, 158 nM.
On to `Fc1ccc2c(NN=Cc3ccccc3F)ccnc2c1`, for which, under “Plasmodium falciparum, 3D7”, the XC50 worked out at 562 nM.
As for `CCCCC(CCCC)CN1C(=O)C(c2ccccc2)(c2ccccc2)N=C1N`, the XC50 (Plasmodium falciparum, 3D7) was found to be 182 nM.
Take `C=CCOC(=O)N1CCC(CNCc2ccc(-c3ccc(-c4nc5cc(C(F)(F)F)ccc5[nH]4)cc3)cc2)C1` (stereo not drawn): the XC50 (Plasmodium falciparum, 3D7) stood at 150 nM.
Same read-out and setting: as for `CC(C)CCNC(=O)C1Cc2c([nH]c3cc(Cl)ccc23)C2(CCN(CCc3ccccc3)CC2)N1` (stereo not drawn), the figure is 690 nM; as for `COc1ccc(Cl)cc1N1CCN(CCCNC(=O)c2ccc(-c3nc4cc(Cl)c(Cl)cc4[nH]3)c(C)c2)CC1`, 866 nM; as for `O=C(NCC1CC1)C1CCN(C(c2ccccc2)c2nc3ccccc3s2)CC1` (stereo not drawn), 1020 nM.
Turning to `Cc1cc(N)c2cc(NC(=O)c3cccc4ccccc34)ccc2n1`, the XC50 (Plasmodium falciparum, 3D7) amounted to 844 nM.
Still for that read-out and setting: as for `Cc1cc(=NN=Cc2ccccc2)c2cc(C(F)(F)F)ccc2[nH]1`, the figure is 153 nM; as for `CN1CCN(c2ccnc3ccc(NC(=O)Nc4ccc(-c5ccccc5)cc4)cc23)CC1`, 776 nM; as for `O=C(Nc1ccc(-c2ccccc2)s1)N[C@H]1CCN(Cc2ccc(OCCCN3CCCCC3)cc2)C1`, 742 nM.
As to `CCCCCn1c(Sc2ccc(C#N)c([N+](=O)[O-])c2)nnc1-c1ccc(Cl)cc1`, the XC50 (Plasmodium falciparum, 3D7) was 1080 nM.
